Read-outs that look alike come from different tables or passages of the source.
Tests used:
MOR = target: T1, MOR (Rattus norvegicus, UniProt P33535); experiment: Opioid receptor binding, MOR, rat brain membranes
T1 construct: from tissue

DOR = target: T2, DOR (Rattus norvegicus, UniProt P33533); experiment: Opioid receptor binding, DOR, rat brain membranes
T2 construct: from tissue

KOR = target: T3, KOR (Cavia porcellus, UniProt P41144); experiment: Opioid receptor binding, KOR, guinea pig brain membranes
T3 construct: from tissue

[1] = Binding Ki (nM) MOR, in vitro binding assay, rat brain membranes
[2] = Binding Ki (nM) DOR, in vitro binding assay, rat brain membranes
[3] = Binding Ki (nM) KOR, in vitro binding assay, guinea pig brain membranes
[4] = Binding Ki DOR, Table 1-4, rat brain membranes
[5] = Binding Ki KOR, Table 1-4, guinea pig brain membranes
[6] = Binding Ki MOR, Table 1-4, rat brain membranes
[7] = Binding Ki MOR, Table 1-6, rat brain membranes
[8] = Binding Ki MOR, Table 2-6, rat brain membranes
[9] = Binding Ki DOR, Table 1-6, rat brain membranes
[10] = Binding Ki DOR, Table 2-6, rat brain membranes
[11] = Binding Ki KOR, Table 1-6, guinea pig brain membranes
[12] = Binding Ki KOR, Table 2-6, guinea pig brain membranes
[13] = in vitro binding assay, rat brain membranes, read-out: Binding Ki (nM) MOR
[14] = in vitro binding assay, rat brain membranes, read-out: Binding Ki (nM) DOR
[15] = in vitro binding assay, guinea pig brain membranes, read-out: Binding Ki (nM) KOR

T2 sequence (P33533 whole entry): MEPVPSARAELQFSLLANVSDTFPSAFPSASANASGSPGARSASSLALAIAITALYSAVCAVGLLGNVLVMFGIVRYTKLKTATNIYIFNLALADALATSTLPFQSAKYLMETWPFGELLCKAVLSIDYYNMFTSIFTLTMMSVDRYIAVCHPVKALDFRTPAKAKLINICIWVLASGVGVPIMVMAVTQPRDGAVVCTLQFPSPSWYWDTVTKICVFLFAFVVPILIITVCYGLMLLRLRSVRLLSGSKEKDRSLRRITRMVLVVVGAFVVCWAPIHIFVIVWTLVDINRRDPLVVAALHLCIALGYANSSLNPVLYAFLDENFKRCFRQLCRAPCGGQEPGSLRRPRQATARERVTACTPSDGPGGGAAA
T1 sequence (P33535 whole entry): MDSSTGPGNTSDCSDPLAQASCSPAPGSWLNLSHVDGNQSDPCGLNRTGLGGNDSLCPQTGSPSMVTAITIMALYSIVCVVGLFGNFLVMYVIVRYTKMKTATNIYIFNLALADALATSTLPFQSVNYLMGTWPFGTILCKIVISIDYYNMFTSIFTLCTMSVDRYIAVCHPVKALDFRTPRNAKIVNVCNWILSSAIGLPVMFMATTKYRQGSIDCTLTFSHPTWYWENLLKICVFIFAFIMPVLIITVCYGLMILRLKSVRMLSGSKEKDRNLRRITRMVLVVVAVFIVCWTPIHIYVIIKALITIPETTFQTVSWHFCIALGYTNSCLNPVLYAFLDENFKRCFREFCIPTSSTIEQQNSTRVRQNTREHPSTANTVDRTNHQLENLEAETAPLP
T3 sequence (P41144 whole entry): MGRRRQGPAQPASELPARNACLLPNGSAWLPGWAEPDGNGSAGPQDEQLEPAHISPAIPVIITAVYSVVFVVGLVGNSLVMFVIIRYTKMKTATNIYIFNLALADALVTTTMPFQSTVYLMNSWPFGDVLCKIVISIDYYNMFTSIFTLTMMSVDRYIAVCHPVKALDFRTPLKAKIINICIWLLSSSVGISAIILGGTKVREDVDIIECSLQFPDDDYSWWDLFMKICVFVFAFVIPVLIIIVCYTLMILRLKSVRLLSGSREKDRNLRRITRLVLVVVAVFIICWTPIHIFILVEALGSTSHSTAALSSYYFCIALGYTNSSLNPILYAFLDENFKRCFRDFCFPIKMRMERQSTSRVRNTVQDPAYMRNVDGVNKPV

Row | SMILES | Ki (MOR; [1]) [nM] | Ki (DOR; [2]) [nM] | Ki (KOR; [3]) [nM] | Ki (DOR; [14]) [nM] | Ki (KOR; [15]) [nM] | other results
1 | CCC(C)C(NC1CCC2(OC)C3Cc4ccc(O)c5c4C2(CCN3C)C1O5)C(=O)OC(C)(C)C (single isomer, unassigned) [42-t-Bu ester] | 1.04 | 1 | 29.2 |  |  | 
2 | CCC(C)C(NC1CCC2(OC)C3Cc4ccc(O)c5c4C2(CCN3C)C1O5)C(=O)OC(C)(C)C (single isomer, unassigned) [43-t-Bu ester] | 2.87 | 2.12 | 208 |  |  | 
3 | COC12CCC(NC(C)C(=O)O)C3Oc4c(O)ccc5c4C31CCN(C)C2C5 (single isomer, unassigned) [Compound 1] |  | 26.9 | 142 |  |  | Ki (DOR; [4]): 26.9 nM; Ki (KOR; [5]): 142 nM
4 | COC12CCC(NC(C)C(=O)O)C3Oc4c(O)ccc5c4C31CCN(C)C2C5 (single isomer, unassigned) [Compound 2] |  | 7.71 | 63.7 |  |  | Ki (DOR; [4]): 7.71 nM; Ki (KOR; [5]): 63.7 nM
5 | COC12CCC(NCCC(=O)O)C3Oc4c(O)ccc5c4C31CCN(C)C2C5 (single isomer, unassigned) [Compound 21] | 1.3 | 60 | 182 |  |  | Ki (MOR; [6]): 1.3 nM; Ki (DOR; [4]): 60 nM; Ki (KOR; [5]): 182 nM
6 | COC12CCC(NCCC(=O)O)C3Oc4c(O)ccc5c4C31CCN(C)C2C5 (single isomer, unassigned) [Compound 22] | 1.04 | 13.9 | 71.4 |  |  | Ki (MOR; [6]): 1.04 nM; Ki (DOR; [4]): 13.9 nM; Ki (KOR; [5]): 71.4 nM
7 | COC12CCC(NC(C(=O)O)C(C)C)C3Oc4c(O)ccc5c4C31CCN(C)C2C5 (single isomer, unassigned) [Compound 28] | 3.16 | 3.91 | 325 |  |  | Ki (MOR; [6]): 3.16 nM; Ki (DOR; [4]): 3.91 nM; Ki (KOR; [5]): 325 nM
8 | COC12CCC(NC(C(=O)O)C(C)C)C3Oc4c(O)ccc5c4C31CCN(C)C2C5 (single isomer, unassigned) [Compound 29] | 3.04 | 3.52 | 305 |  |  | Ki (MOR; [6]): 3.04 nM; Ki (DOR; [4]): 3.52 nM; Ki (KOR; [5]): 305 nM
9 | COC12CCC(NC(C(=O)O)C(C)C)C3Oc4c(O)ccc5c4C31CCN(C)C2C5 (single isomer, unassigned) [Compound 30] | 1.7 | 1.93 | 202 |  |  | Ki (MOR; [6]): 1.7 nM; Ki (DOR; [4]): 1.93 nM; Ki (KOR; [5]): 202 nM
10 | COC12CCC(NC(C(=O)O)C(C)C)C3Oc4c(O)ccc5c4C31CCN(C)C2C5 (single isomer, unassigned) [Compound 31] | 1.02 | 1.68 | 159 |  |  | Ki (MOR; [6]): 1.02 nM; Ki (DOR; [4]): 1.68 nM; Ki (KOR; [5]): 159 nM
11 | COC12CCC(NC(C)C(=O)O)C3Oc4c(O)ccc5c4C31CCN(C)C2C5 (single isomer, unassigned) [Compound 53] |  |  |  |  |  | Ki (DOR; [4]): 10.4 nM; Ki (KOR; [5]): 71.5 nM
12 | COC12CCC(NC(C)C(=O)O)C3Oc4c(O)ccc5c4C31CCN(C)C2C5 (single isomer, unassigned) [Compound 54] |  |  |  |  |  | Ki (DOR; [4]): 11.3 nM; Ki (KOR; [5]): 142 nM
13 | COC12CCC(NC(C(=O)O)C(C)C)C3Oc4c(O)ccc5c4C31CCN(CC1CC1)C2C5 (single isomer, unassigned) [Compound 68] |  |  |  |  |  | Ki (MOR; [7]): 0.44 nM; Ki (MOR; [8]): 0.44 nM; Ki (DOR; [9]): 0.53 nM; Ki (DOR; [10]): 0.53 nM; Ki (KOR; [11]): 3.34 nM; Ki (KOR; [12]): 3.34 nM
14 | COC12CCC(NC(C(=O)O)C(C)C)C3Oc4c(O)ccc5c4C31CCN(CC1CC1)C2C5 (single isomer, unassigned) [Compound 69] |  |  |  |  |  | Ki (MOR; [7]): 0.66 nM; Ki (MOR; [8]): 0.66 nM; Ki (DOR; [9]): 1.35 nM; Ki (DOR; [10]): 1.35 nM; Ki (KOR; [11]): 3 nM; Ki (KOR; [12]): 3 nM
15 | COC12CCC(NC(C(=O)O)C(C)C)C3Oc4c(O)ccc5c4C31CCN(CC1CC1)C2C5 (single isomer, unassigned) [Compound 70] |  |  |  |  |  | Ki (MOR; [7]): 0.62 nM; Ki (MOR; [8]): 0.62 nM; Ki (DOR; [9]): 0.71 nM; Ki (DOR; [10]): 0.71 nM; Ki (KOR; [11]): 3.54 nM; Ki (KOR; [12]): 3.54 nM
16 | COC12CCC(NC(C(=O)O)C(C)C)C3Oc4c(O)ccc5c4C31CCN(CC1CC1)C2C5 (single isomer, unassigned) [Compound 71] |  |  |  |  |  | Ki (MOR; [7]): 1.52 nM; Ki (MOR; [8]): 1.52 nM; Ki (DOR; [9]): 0.35 nM; Ki (DOR; [10]): 0.35 nM; Ki (KOR; [11]): 23 nM; Ki (KOR; [12]): 23 nM
17 | CO[C@@]12CC[C@H](N[C@@H](C)C(=O)OC(C)(C)C)[C@@H]3Oc4c(O)ccc5c4[C@@]31CCN(C)[C@@H]2C5 [1-t-Bu ester] | 0.29 | 0.41 | 11.3 |  |  | 
18 | CO[C@@]12CC[C@@H](N[C@@H](C)C(=O)OC(C)(C)C)[C@@H]3Oc4c(O)ccc5c4[C@@]31CCN(C)[C@@H]2C5 [2-t-Bu ester] | 1.13 | 1.36 | 93.6 |  |  | 
19 | CO[C@@]12CC[C@H](N[C@@H](Cc3ccccc3)C(=O)OC(C)(C)C)[C@@H]3Oc4c(O)ccc5c4[C@@]31CCN(C)[C@@H]2C5 [3-t-Bu ester] |  |  |  | 0.93 | 32.5 | Ki (MOR; [13]): 0.5 nM
20 | CO[C@@]12CC[C@@H](N[C@@H](Cc3ccccc3)C(=O)OC(C)(C)C)[C@@H]3Oc4c(O)ccc5c4[C@@]31CCN(C)[C@@H]2C5 [4-t-Bu ester] | 2.56 |  |  | 2.66 |  | 

Row | SMILES | Ki (MOR; [1]) [nM] | Ki (DOR; [2]) [nM] | Ki (KOR; [3]) [nM] | Ki (DOR; [14]) [nM] | Ki (KOR; [15]) [nM] | other results
21 | CCO[C@@]12CC[C@H](NCC(=O)OC(C)(C)C)[C@@H]3Oc4c(O)ccc5c4[C@@]31CCN(C)[C@@H]2C5 [5-t-Bu ester] | 0.2 | 0.31 | 15 |  |  | 
22 | CCO[C@@]12CC[C@@H](NCC(=O)OC(C)(C)C)[C@@H]3Oc4c(O)ccc5c4[C@@]31CCN(C)[C@@H]2C5 [6-t-Bu ester] |  |  |  | 0.57 | 34.1 | Ki (MOR; [13]): 0.81 nM
23 | CCOC(=O)CNC1CCC2(OCCCc3ccccc3)C3Cc4ccc(O)c5c4C2(CCN3C)C1O5 (stereo not drawn) [7-Et ester] |  |  |  | 0.25 | 0.44 | Ki (MOR; [13]): 0.43 nM
24 | CN1CCC23c4c5ccc(O)c4OC2C(NCC(=O)OC(C)(C)C)CCC3(OCCCc2ccccc2)C1C5 (stereo not drawn) [7-t-Bu ester] |  |  |  | 1.01 | 1.26 | Ki (MOR; [13]): 1.4 nM
25 | CCOC(=O)CNC1CCC2(OCCCc3ccccc3)C3Cc4ccc(O)c5c4C2(CCN3C)C1O5 (stereo not drawn) [8-Et ester] |  |  |  | 0.21 | 0.41 | Ki (MOR; [13]): 0.37 nM
26 | CN1CCC23c4c5ccc(O)c4OC2C(NCC(=O)OC(C)(C)C)CCC3(OCCCc2ccccc2)C1C5 (stereo not drawn) [8-t-Bu ester] |  |  |  | 0.92 | 2.02 | Ki (MOR; [13]): 1.03 nM
27 | CO[C@@]12CC[C@H](N[C@@H](Cc3ccc(O)cc3)C(=O)OC(C)(C)C)[C@@H]3Oc4c(O)ccc5c4[C@@]31CCN(C)[C@@H]2C5 [9-t-Bu ester] | 0.59 |  |  | 0.42 | 12.3 | 
28 | CO[C@@]12CC[C@@H](N[C@@H](Cc3ccc(O)cc3)C(=O)OC(C)(C)C)[C@@H]3Oc4c(O)ccc5c4[C@@]31CCN(C)[C@@H]2C5 [10-t-Bu ester] |  |  |  | 1.88 | 184 | Ki (MOR; [13]): 1.53 nM
29 | CO[C@@]12CC[C@H](NCCCC(=O)OC(C)(C)C)[C@@H]3Oc4c(O)ccc5c4[C@@]31CCN(C)[C@@H]2C5 [15-t-Bu ester] | 0.22 | 7.99 | 8.82 |  |  | 
30 | CO[C@@]12CC[C@@H](NCCCC(=O)OC(C)(C)C)[C@@H]3Oc4c(O)ccc5c4[C@@]31CCN(C)[C@@H]2C5 [16-t-Bu ester] |  |  |  | 1.63 | 8.79 | Ki (MOR; [13]): 0.54 nM
31 | CO[C@@]12CC[C@H](N[C@@H](CCC(N)=O)C(=O)OC(C)(C)C)[C@@H]3Oc4c(O)ccc5c4[C@@]31CCN(C)[C@@H]2C5 [17-t-Bu ester] | 0.18 | 0.18 | 8.97 |  |  | 
32 | CO[C@@]12CC[C@@H](N[C@@H](CCC(N)=O)C(=O)OC(C)(C)C)[C@@H]3Oc4c(O)ccc5c4[C@@]31CCN(C)[C@@H]2C5 [18-t-Bu ester] | 1.65 | 1.35 | 163 |  |  | 
33 | CO[C@@]12CC[C@H](N[C@@H](CCC(=O)OC(C)(C)C)C(=O)OC(C)(C)C)[C@@H]3Oc4c(O)ccc5c4[C@@]31CCN(C)[C@@H]2C5 [19-t-Bu ester] |  |  |  | 0.32 | 18.3 | Ki (MOR; [13]): 0.27 nM
34 | CO[C@@]12CC[C@@H](N[C@@H](CCC(=O)OC(C)(C)C)C(=O)OC(C)(C)C)[C@@H]3Oc4c(O)ccc5c4[C@@]31CCN(C)[C@@H]2C5 [20-t-Bu ester] |  |  |  | 0.19 | 81.5 | Ki (MOR; [13]): 1.53 nM
35 | CO[C@@]12CC[C@H](NCCC(=O)OC(C)(C)C)[C@@H]3Oc4c(O)ccc5c4[C@@]31CCN(C)[C@@H]2C5 [21-t-Bu ester] | 0.31 | 0.83 | 13.5 |  |  | 
36 | CO[C@@]12CC[C@@H](NCCC(=O)OC(C)(C)C)[C@@H]3Oc4c(O)ccc5c4[C@@]31CCN(C)[C@@H]2C5 [22-t-Bu ester] | 0.35 | 0.23 | 7.54 |  |  | 
37 | CO[C@@]12CC[C@H](N[C@@H](CCSC)C(=O)OC(C)(C)C)[C@@H]3Oc4c(O)ccc5c4[C@@]31CCN(C)[C@@H]2C5 [23-t-Bu ester] |  |  |  | 0.12 | 10.5 | Ki (MOR; [13]): 0.32 nM
38 | CO[C@@]12CC[C@@H](N[C@@H](CCSC)C(=O)OC(C)(C)C)[C@@H]3Oc4c(O)ccc5c4[C@@]31CCN(C)[C@@H]2C5 [24-t-Bu ester] | 1.83 | 0.81 | 166 |  |  | 
39 | CO[C@@]12CC[C@@H](N[C@@H](C)C(=O)OC(C)(C)C)[C@@H]3Oc4c(O)ccc5c4[C@@]31CCN(CC1CC1)[C@@H]2C5 [72-tBu ester] |  |  |  |  |  | Ki (DOR; [10]): 0.32 nM; Ki (KOR; [12]): 9.68 nM
40 | CO[C@@]12CC[C@H](NCC(=O)OC(C)(C)C)[C@@H]3Oc4c(O)ccc5c4[C@@]31CCN(C)[C@@H]2C5 [HS730-t-Bu ester] |  | 0.54 | 12.1 |  |  | 

— patent US20170217976A1, “6-(AMINO ACID)-MORPHINAN DERIVATIVES IN COMBINATION WITH PERMEATION […] FOR USE AS AN ORALLY, […], TRA[…] NASALLY AD[…]” (C[…], priority 2014, published 2017)
